Laboratory results reported in patent US12077503B2, “Substituted cyclic amides and their use as herbicides” (FMC CORPORATION, priority 2015, dated 2024).
Read-outs that look alike come from different tables or passages of the source.

How the values were obtained:
Test in all cases: Test A postemergence
Type in all cases: in vivo
[1] = tested on: Galium (catchweed bedstraw, Galium aparine); conditions: Galium, post-emergence, 240 h; for pest or weed control at 125 g/ha: 125 g ai/ha; for pest or weed control at 500 g/ha: 500 g ai/ha
Method in brief: (§1)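 Preemergence directed soil spray on seeded pots, or postemergence application to plants 2–10 cm, one- to two-leaf. Solvent mixture non-phytotoxic, with surfactant. Scored ~10 d later, visually, 0–100 vs untreated.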

Kochia (Kochia scoparia) = conditions: Bassia scoparia, post-emergence, 240 h; for pest or weed control at 125 g/ha: 125 g ai/ha; for pest or weed control at 500 g/ha: 500 g ai/ha
Method in brief: as §1

[2] = tested on: barnyardgrass (Echinochloa crus-galli); conditions: Echinochloa crus-galli, post-emergence, 240 h; for pest or weed control at 125 g/ha: 125 g ai/ha; for pest or weed control at 500 g/ha: 500 g ai/ha
Method in brief: as §1

[3] = tested on: giant foxtail (Setaria faberii); conditions: Setaria faberi, post-emergence, 240 h; for pest or weed control at 125 g/ha: 125 g ai/ha; for pest or weed control at 500 g/ha: 500 g ai/ha
Method in brief: as §1

[4] = tested on: wheat (Triticum aestivum); conditions: Triticum aestivum, post-emergence, 240 h; for plant injury at 125 g/ha: 125 g ai/ha; for plant injury at 500 g/ha: 500 g ai/ha, 0 to 100 scale, 0 is no effect, 100 is complete control
Method in brief: as §1

[5] = postemergence, visual injury rating after approximately 10 d, read-out: Galium plant response rating (0 to 100 scale, 0 no effect, 100 complete control)
[6] = postemergence, visual injury rating after approximately 10 d, read-out: Kochia plant response rating (0 to 100 scale, 0 no effect, 100 complete control)
[7] = postemergence, visual injury rating after approximately 10 d, read-out: Barnyardgrass plant response rating (0 to 100 scale, 0 no effect, 100 complete control)
[8] = postemergence, visual injury rating after approximately 10 d, read-out: Foxtail, Giant plant response rating (0 to 100 scale, 0 no effect, 100 complete control)
[9] = postemergence, visual injury rating after approximately 10 d, read-out: Wheat plant response rating (0 to 100 scale, 0 no effect, 100 complete control)
[10] = postemergence, visual injury vs untreated controls after approx. 10 d, 0 = no effect, 100 = complete control, read-out: Galium plant response rating (0 to 100 scale)
[11] = postemergence, 0 to 100 scale, 0 is no effect, 100 is complete control, read-out: Galium plant response rating
[12] = postemergence, visual injury vs untreated controls after approx. 10 d, 0 = no effect, 100 = complete control, read-out: Kochia plant response rating (0 to 100 scale)
[13] = postemergence, 0 to 100 scale, 0 is no effect, 100 is complete control, read-out: Kochia plant response rating
[14] = postemergence, visual injury vs untreated controls after approx. 10 d, 0 = no effect, 100 = complete control, read-out: Barnyardgrass plant response rating (0 to 100 scale)
[15] = postemergence, 0 to 100 scale, 0 is no effect, 100 is complete control, read-out: Barnyardgrass plant response rating
[16] = postemergence, visual injury vs untreated controls after approx. 10 d, 0 = no effect, 100 = complete control, read-out: Foxtail, Giant plant response rating (0 to 100 scale)
[17] = postemergence, 0 to 100 scale, 0 is no effect, 100 is complete control, read-out: Foxtail, Giant plant response rating
[18] = postemergence, visual injury vs untreated controls after approx. 10 d, 0 = no effect, 100 = complete control, read-out: Wheat plant response rating (0 to 100 scale)
[19] = postemergence, read-out: Wheat plant response rating
[20] = postemergence, visual injury on 0 to 100 scale (0 no effect, 100 complete control), approx. 10 d, read-out: Kochia plant response rating
[21] = postemergence, visual injury on 0 to 100 scale (0 no effect, 100 complete control), approx. 10 d, read-out: Barnyardgrass plant response rating
[22] = postemergence, visual injury on 0 to 100 scale (0 no effect, 100 complete control), approx. 10 d, read-out: Foxtail, Giant plant response rating
[23] = postemergence, visual injury on 0 to 100 scale (0 no effect, 100 complete control), approx. 10 d, read-out: Wheat plant response rating

| SMILES | pest or weed control at 125 g/ha [1, 10] | pest or weed control at 500 g/ha [1, 11] | pest or weed control at 125 g/ha (Kochia (Kochia scoparia); [12]) | pest or weed control at 500 g/ha (Kochia (Kochia scoparia); [13]) | pest or weed control at 500 g/ha [2, 15] | pest or weed control at 125 g/ha [3, 16] | pest or weed control at 500 g/ha [3, 17] | plant injury at 125 g/ha [4, 18] | plant injury at 500 g/ha [4, 19] | further results |
| --- | --- | --- | --- | --- | --- | --- | --- | --- | --- | --- |
| Cc1c(F)ccc([C@H]2CN(C)C(=O)[C@@H]2C(=O)Nc2ccccc2F)c1F [Compound 833] | – | – | – | – | – | – | – | – | – | pest or weed control at 125 g/ha [1, 5]: 40%; pest or weed control at 125 g/ha (Kochia (Kochia scoparia); [6]): 30%; pest or weed control at 125 g/ha [2, 7]: 90%; pest or weed control at 125 g/ha [3, 8]: 90%; plant injury at 125 g/ha [4, 9]: 0% |
| Cc1cc([C@H]2CN(C)C(=O)[C@@H]2C(=O)Nc2ccccc2C(F)(F)F)ccc1Cl [Compound 932] | – | – | – | – | – | – | – | – | – | pest or weed control at 125 g/ha ([1]; Postemergence, visual injury after approximately 10 d, 0 to 100 scale where 0 is no effect and 100 is complete control, read-out: Plant response rating, Galium): 40%; pest or weed control at 125 g/ha (Kochia (Kochia scoparia); Postemergence, visual injury after approximately 10 d, 0 to 100 scale where 0 is no effect and 100 is complete control, read-out: Plant response rating, Kochia): 30%; pest or weed control at 125 g/ha ([2]; Postemergence, visual injury after approximately 10 d, 0 to 100 scale where 0 is no effect and 100 is complete control, read-out: Plant response rating, Barnyardgrass): 90%; pest or weed control at 125 g/ha ([3]; Postemergence, visual injury after approximately 10 d, 0 to 100 scale where 0 is no effect and 100 is complete control, read-out: Plant response rating, Foxtail, Giant): 90%; plant injury at 125 g/ha ([4]; Postemergence, visual injury after approximately 10 d, 0 to 100 scale where 0 is no effect and 100 is complete control, read-out: Plant response rating, Wheat): 30% |
| CSc1ccccc1NC(=O)[C@H]1C(=O)N(C)C[C@@H]1c1cccc(OC(F)(F)C(F)F)c1 [Compound 862] | – | – | – | – | – | – | – | – | – | pest or weed control at 125 g/ha [1, 5]: 60%; pest or weed control at 125 g/ha (Kochia (Kochia scoparia); [6]): 40%; pest or weed control at 125 g/ha [2, 7]: 30%; pest or weed control at 125 g/ha [3, 8]: 60%; plant injury at 125 g/ha [4, 9]: 0% |
| Cc1cc([C@H]2CN(C)C(=O)[C@@H]2C(=O)Nc2ccccc2F)on1 [Compound 1195] | 0% | 0% | 0% | 0% | 20% | 0% | 20% | 0% | 0% | pest or weed control at 125 g/ha [2, 14]: 0% |
| CN1C[C@H](c2cccc(COC(F)F)c2)[C@@H](C(=O)Nc2ccccc2S(C)(=O)=O)C1=O [Compound 877] | – | – | – | – | – | – | – | – | – | pest or weed control at 125 g/ha [1, 5]: 20%; pest or weed control at 125 g/ha (Kochia (Kochia scoparia); [6]): 20%; pest or weed control at 125 g/ha [2, 7]: 60%; pest or weed control at 125 g/ha [3, 8]: 70%; plant injury at 125 g/ha [4, 9]: 30% |
| Cc1cc([C@H]2CNC(=O)[C@@H]2C(=O)Nc2ccc(F)cc2F)ccc1C(F)(F)F [Compound 1043] | – | – | – | – | – | – | – | – | – | pest or weed control at 125 g/ha ([1]; postemergence, visual injury on 0 to 100 scale (0 no effect, 100 complete control), approx. 10 d, read-out: Galium plant response rating): 20%; pest or weed control at 500 g/ha ([1]; postemergence, visual injury, 0 to 100 scale (0 no effect, 100 complete control), approx. 10 d, read-out: Plant response rating, Galium): 40%; pest or weed control at 125 g/ha (Kochia (Kochia scoparia); [20]): 0%; pest or weed control at 500 g/ha (Kochia (Kochia scoparia); postemergence, visual injury, 0 to 100 scale (0 no effect, 100 complete control), approx. 10 d, read-out: Plant response rating, Kochia): 40%; pest or weed control at 125 g/ha [2, 21]: 50%; pest or weed control at 500 g/ha ([2]; postemergence, visual injury, 0 to 100 scale (0 no effect, 100 complete control), approx. 10 d, read-out: Plant response rating, Barnyardgrass): 80%; pest or weed control at 125 g/ha [3, 22]: 70%; pest or weed control at 500 g/ha ([3]; postemergence, visual injury, 0 to 100 scale (0 no effect, 100 complete control), approx. 10 d, read-out: Plant response rating, Foxtail, Giant): 80%; plant injury at 125 g/ha [4, 23]: 0% |
| Cc1ccc([C@H]2CCN(C)C(=O)[C@@H]2C(=O)Nc2ccc(F)c(F)c2F)cc1 [Compound 1221] | 40% | 60% | – | – | 60% | 90% | 90% | 20% | 60% | pest or weed control at 125 g/ha [2, 14]: 30% |
| COc1cc(C(F)(F)F)ccc1[C@H]1CNC(=O)[C@@H]1C(=O)Nc1ccccc1F [Compound 1202] | 0% | 40% | 30% | 40% | – | 70% | 90% | 0% | 50% | – |
| COc1cc([C@H]2CN(C)C(=O)[C@@H]2C(=O)Nc2cccc(F)c2F)cc(OC)c1OC [Compound 1210] | 0% | 0% | 0% | 0% | – | 90% | 90% | 0% | 60% | – |
| Cc1ccc([C@H]2CNC(=O)[C@]2(Br)C(=O)Nc2cccc(F)c2F)cc1F (racemic) [Compound 1073] | – | – | – | 40% | 90% | – | 40% | – | 30% | pest or weed control at 125 g/ha (Kochia (Kochia scoparia); [20]): 0%; pest or weed control at 125 g/ha [2, 21]: 70%; pest or weed control at 125 g/ha [3, 22]: 0%; plant injury at 125 g/ha [4, 23]: 0% |
| CSc1ccccc1NC(=O)[C@H]1C(=O)N(C)CC[C@@H]1c1ccc(C)cc1 [Compound 1222] | 0% | 0% | – | – | 0% | 20% | 70% | 0% | 0% | pest or weed control at 125 g/ha [2, 14]: 0% |
| Cc1nc([C@H]2CNC(=O)[C@@H]2C(=O)Nc2ccccc2F)cs1 [Compound 1179] | 0% | 0% | – | – | 0% | 0% | 0% | 0% | 0% | pest or weed control at 125 g/ha [2, 14]: 0% |
| Cc1c(F)cccc1NC(=O)[C@H]1C(=O)N(C)C[C@@H]1c1ccc(C(F)(F)F)nc1 [Compound 1197] | 60% | 60% | 70% | 80% | – | 90% | 90% | 50% | 60% | – |
| COc1ccc([C@H]2CN(C)C(=O)[C@@H]2C(=O)Nc2cccc(F)c2F)c(OC)c1 [Compound 1209] | 0% | 30% | 0% | 50% | – | 80% | 90% | 0% | 20% | – |
